# Tests used:
# in vivo [1] = conditions: female, athymic nude, mouse, total radioactivity
# Experimental: (§1) All mice were sacrificed and dissected at 20 h post-injection (p.i.) of the tracer. Blood, U87MG tumor, major organs and tissues were collected and wet weighed. The radioactivity in the tissue was measured using a γ-counter (Packard). The results were presented as percentage injected dose per gram of tissue (% ID/g).
# in vivo [2] = conditions: mouse, iv, total radioactivity
# Experimental: (§2) PET scans and image analysis were performed using a microPET R4 rodent model scanner (Siemens Medical Solutions) as previously reported (J Nucl Med 2006;47:113-121 and J Nucl Med 2005;46:1707-1718, each of which is incorporated herein by reference for the corresponding discussion). Each mouse was tail-vein injected with about 3.7 MBq (100 μCi) of ^18F-FPRGD2 under isoflurane anesthesia. The 30-min dynamic scan (1×30 s, 4×1 min, 1×1.5 min, 4×2 min, 1×2.5 min, 4×3 min, total of 15 frames) was started 1 min after injection. Five min static PET images were also acquired at 1 h and 2 h post-injection (p.i.). The images were reconstructed by a 2-dimensional ordered-subsets expectation maximum (OSEM) algorithm and no correction was applied for attenuation or scatter.
# (§3) PET scans and image analysis were performed using a microPET R4 rodent model scanner (Siemens Medical Solutions) as previously reported. For U87MG tumor model, mice (n=3) were tail-vein injected with about 3.7 MBq (100 μCi) of ^18F-FPRGD4 under isoflurane anesthesia and then subjected to a 30-min dynamic scan (1×30 s, 4×1 min, 1×1.5 min, 4×2 min, 1×2.5 min, 4×3 min, total of 15 frames) starting from 1 min p.i. Five min static PET images were also acquired at 1, 2, and 3 h p.i. The images were reconstructed by 2-dimensional ordered-subsets expectation maximum (OSEM) algorithm. No attenuation or scatter correction was applied. […] The 5-min static PET scans was then acquired at 30 min and 1 h p.i. Multiple time point static scans were also obtained for orthotopic MDA-MB-435, c-neu oncomouse, and subcutaneous DU145 tumor models after tail-vein injected with 3.7 MBq of ^18F-FPRGD4.
# (§4) For each microPET scan, regions of interest (ROIs) were drawn over the tumor, normal tissue, and major organs by using vendor software (ASI Pro 5.2.4.0) on decay-corrected whole-body coronal images. The maximum radioactivity concentration (accumulation) within a tumor or an organ was obtained from mean pixel values within the multiple ROI volume, which were converted to counts/mL/min by using a conversion factor. Assuming a tissue density of 1 g/mL, the ROIs were converted to counts/g/min and then divided by the administered activity to obtain an imaging ROI-derived % ID/g. […]
# (§5) PET scans and image analysis were performed using a microPET R4 rodent model scanner (Siemens Medical Solutions) as previously reported (J Nucl Med. 2005;46:1707-1718 and J Nucl Med. 2006;47:113-121, each of which is incorporated herein by reference for the corresponding discussion). About 9.3 MBq of ^64Cu-DOTA-RGD multimer was intravenously injected into each mouse under isoflurane anesthesia. Five minute static scans were acquired at 30 min, 1 h, 2 h, 6 h, and 20 h p.i. The images were reconstructed by a 2-dimensional ordered-subsets expectation maximum (OSEM) algorithm and no correction was applied for attenuation and scatter. For each microPET scan, regions of interest (ROIs) were drawn over the tumor, normal tissue, and major organs on decay-corrected whole-body coronal images. The radioactivity concentration (accumulation) within a tumor was obtained from the maximum value within the multiple ROIs and then converted to % ID/g.
# (§6) PET scans and image analysis were performed using a microPET R4 rodent model scanner (Siemens Medical Solutions) as previously reported (J Nucl Med. 2006;47:113-21 and J Nucl Med. 2005;46:1707-18, which is incorporated herein by reference for the corresponding discussion). […] The 60-min dynamic scan (5×1 min, 10×3 min, 5×5 min, total of 20 frames) was started 1 min after injection. A 2 h time point static scan was also acquired after the 60 min dynamic scan. Five min static PET images were also acquired separately at 30 min, 1 h and 2 h time points post-injection (p.i.) for another set of tumor-bearing mice (n=3/tracer). The images were reconstructed by a 2-dimensional ordered-subsets expectation maximum (OSEM) algorithm and no correction was necessary for attenuation or scatter correction. […]
# in vivo [3] = conditions: c-neu oncomouse (MMTV/c-neu transgenic), mouse, iv, total radioactivity
# Experimental: All animal experiments were performed under a protocol approved by Stanford's Administrative Panel on Laboratory Animal Care. […] The c-neu oncomouse (Charles River Laboratories, Charles River, Canada) is a spontaneous tumor-bearing model that carries an activated c-neu oncogene driven by a mouse mammary tumor virus (MMTV) promoter (Cell 1988;54:105-115, which is incorporated herein by reference for the corresponding discussion). Transgenic mice uniformly expressing the MMTV/c-neu gene develop mammary adenocarcinomas between 4 and 8 months postpartum that involve the entire epithelium in each gland. […] Each mouse was tail-vein injected with about 3.7 MBq (100 μCi) of ^18[…]2 under isoflurane anesthesia. The 30-min dynamic scan (1×30 s, 4×1 min, 1×1.5 min, 4×2 min, 1×2.5 min, 4×3 min, total of 15 frames) was started 1 min after injection. Five min static PET images were also acquired at 1 h and 2 h post-injection (p.i.). The images were reconstructed by a 2-dimensional ordered-subsets expectation maximum (OSEM) algorithm and no correction was applied for attenuation or scatter. […] Animal procedures were performed according to a protocol approved by the Stanford University Institutional Animal Care and Use Committee. […] The c-neu oncomouse (Charles River Laboratories, Charles River, Canada) is a spontaneous tumor-bearing model that carries an activated c-neu oncogene driven by a mouse mammary tumor virus (MMTV) promoter (Cell. 1988;54:105-115, which is incorporated herein by reference for the corresponding discussion). Transgenic mice uniformly expressing the MMTV/c-neu gene develop mammary adenocarcinomas between 4 and 8 months postpartum that involve the entire epithelium in each gland. […] PET scans and image analysis were performed using a microPET R4 rodent model scanner (Siemens Medical Solutions) as previously reported. […] Five min static PET images were also acquired at 1, 2, and 3 h p.i. The images were reconstructed by 2-dimensional ordered-subsets expectation maximum (OSEM) algorithm. No attenuation or scatter correction was applied. […] The 5-min static PET scans was then acquired at 30 min and 1 h p.i. […] Animal procedures were performed according to a protocol approved by Stanford University Institutional Animal Care and Use Committee. […] Transgenic mice uniformly expressing the MMTV/c-neu gene develop mammary adenocarcinomas (4 to 8 months postpartum) that involve the entire epithelium in each gland. […] Five minute static scans were acquired at 30 min, 1 h, 2 h, 6 h, and 20 h p.i. […] The radioactivity concentration (accumulation) within a tumor was obtained from the maximum value within the multiple ROIs and then converted to % ID/g.
# U87MG tumor-bearing mice = assay: in vivo; conditions: athymic nude, mouse, iv, 3.7 MBq, 1 h
# Experimental: as §2, §3, §4, §5, §6
# in vivo [4] = conditions: female, nude, mouse, total radioactivity
# Experimental: as §1, with “1” for “20”, “after injection” for “post-injection (p.i.)”, “Blood,” for “Blood, U87MG”
# [5] = female, athymic nude, 10 mg/kg, U87MG tumor uptake with blocking
# [6] = female, athymic nude, 9.3 MBq, U87MG tumor uptake
# [7] = female, athymic nude, U87MG tumor uptake
# [8] = athymic nude, 3.7 MBq, U87MG tumor uptake
# [9] = nude, 3.7 MBq, U87MG tumor uptake
smiles,measurement,setting,value
"N=C(N)NCCC[C@@H]1NC(=O)[C@H](CCCCNC(=O)CC[C@H](NC(=O)CC[C@H](NC(=O)CC[C@H](NC(=O)CN2CCN(CC(=O)O)CCN(CC(=O)O)CCN(CC(=O)O)CC2)C(=O)N[C@@H](CCC(=O)N[C@@H](CCC(=O)NCCCC[C@@H]2NC(=O)[C@@H](Cc3ccc(O)cc3)NC(=O)[C@H](CC(=O)O)NC(=O)CNC(=O)[C@H](CCCNC(=N)N)NC2=O)C(=O)NCCCC[C@@H]2NC(=O)[C@@H](Cc3ccc(O)cc3)NC(=O)[C@H](CC(=O)O)NC(=O)CNC(=O)[C@H](CCCNC(=N)N)NC2=O)C(=O)N[C@@H](CCC(=O)NCCCC[C@@H]2NC(=O)[C@@H](Cc3ccc(O)cc3)NC(=O)[C@H](CC(=O)O)NC(=O)CNC(=O)[C@H](CCCNC(=N)N)NC2=O)C(=O)NCCCC[C@@H]2NC(=O)[C@@H](Cc3ccc(O)cc3)NC(=O)[C@H](CC(=O)O)NC(=O)CNC(=O)[C@H](CCCNC(=N)N)NC2=O)C(=O)N[C@@H](CCC(=O)NCCCC[C@@H]2NC(=O)[C@@H](Cc3ccc(O)cc3)NC(=O)[C@H](CC(=O)O)NC(=O)CNC(=O)[C@H](CCCNC(=N)N)NC2=O)C(=O)NCCCC[C@@H]2NC(=O)[C@@H](Cc3ccc(O)cc3)NC(=O)[C@H](CC(=O)O)NC(=O)CNC(=O)[C@H](CCCNC(=N)N)NC2=O)C(=O)NCCCC[C@@H]2NC(=O)[C@@H](Cc3ccc(O)cc3)NC(=O)[C@H](CC(=O)O)NC(=O)CNC(=O)[C@H](CCCNC(=N)N)NC2=O)NC(=O)[C@@H](Cc2ccc(O)cc2)NC(=O)[C@H](CC(=O)O)NC(=O)CNC1=O [^64Cu-DOTA-RGD octamer, metal not drawn]",tissue uptake at 20 h,in vivo [1],27 ± 3.5 %ID/g
same,tissue uptake at 2 h,in vivo [2]; [5],1.7 ± 0.2 %ID/g
same,tissue uptake at 6 h,in vivo [2]; [6],10.5 ± 0.7 %ID/g
same,tissue uptake at 20 h,in vivo [2]; [6],10.3 ± 1 %ID/g
same,tissue uptake at 0.5 h,in vivo [2]; [7],11.7 ± 0.7 %ID/g
same,tissue uptake at 1 h,in vivo [2]; [7],10.6 ± 0.7 %ID/g
same,tissue uptake at 2 h,in vivo [2]; [7],10.6 ± 0.3 %ID/g
same,tissue uptake at 20 h,in vivo [3]; 9.3 MBq,6.6 ± 1.5 %ID/g
same,tissue uptake at 1 h,in vivo [3],8.9 ± 2.1 %ID/g
"N=C(N)NCCC[C@@H]1NC(=O)[C@H](CCCCNC(=O)CC[C@H](NC(=S)Nc2ccc(C[C@H]3CN(CC(=O)O)CCN(CC(=O)O)CCN3CC(=O)O)cc2)C(=O)NCCCC[C@@H]2NC(=O)[C@@H](Cc3ccc(O)cc3)NC(=O)[C@H](CC(=O)O)NC(=O)CNC(=O)[C@H](CCCNC(=N)N)NC2=O)NC(=O)[C@@H](Cc2ccc(O)cc2)NC(=O)[C@H](CC(=O)O)NC(=O)CNC1=O [^68Ga-NOTA-RGD2, metal not drawn]",tissue uptake at 0.5 h,in vivo [2]; [8],2.6 ± 0.2 %ID/g
same,tissue uptake at 1 h,in vivo [2]; [8],2.8 ± 0.11 %ID/g
same,tissue uptake at 2 h,in vivo [2]; [8],1.7 ± 0.1 %ID/g
same,tissue uptake at 1 h,"in vivo [2]; athymic nude, 3.7 MBq, kidney uptake",2 %ID/g
same,tissue uptake at 1 h,in vivo [2]; [5],0.31 ± 0.02 %ID/g
same,tissue uptake at 5 min,in vivo [2]; [9],4.39 %ID/g
same,tissue uptake at 0.25 h,in vivo [2]; [9],3.46 %ID/g
same,tissue uptake at 0.5 h,in vivo [2]; [9],2.79 %ID/g
same,tissue uptake at 1 h,in vivo [2]; [9],2.34 %ID/g
same,tissue uptake at 2 h,in vivo [2]; [9],1.89 %ID/g
same,tissue uptake at 1 h,"in vivo [2]; nude, 3.7 MBq, kidney uptake",4.6 %ID/g
same,U87MG tumor uptake,U87MG tumor-bearing mice,2.2±0.1 % ID/g
same,tissue uptake at 1 h,"in vivo [4]; 10 mg/kg, tumor uptake with blocking",0.21 ± 0.03 %ID/g
same,tissue uptake at 1 h,"in vivo [4]; 3.7 MBq, kidney uptake",4.3 ± 0.25 %ID/g
same,tissue uptake at 1 h,"in vivo [4]; 3.7 MBq, tumor uptake",3.82 ± 0.7 %ID/g
same,tissue uptake at 1 h,"in vivo [4]; 3.7 MBq, uptake values in the other major organs",≤ 1 %ID/g
